Results from US5407932A, “Quinolone derivatives and antibacterial agents containing the same” (Wakunaga Seiyaku Kabushiki Kaisha, priority 1989, dated 1995).
Values after ≈ are worked out from the molar mass of the structure shown.

Experiments:
Assay in all cases: Minimum inhibitory concentration, standard method of the Japan Society of Chemotherapy
Assay type in all cases: cell-based
[1] = system: S. aureus 209 P (IFO 12732); settings: Staphylococcus aureus, IFO12732
Protocol: (§1) With respect to certain representative compounds among the compounds [I] of the present invention, their minimum inhibitory concentrations (MIC; μg/ml) were measured in accordance with the standard method established by the Japan Society of Chemotherapy [CHEMOTHERAPY, 29(1), 76-79 (1981)]. The results are summarized in Table 1, in which the compound numbers are as shown in examples.

P. aeruginosa (IFO 3445) = settings: Pseudomonas aeruginosa, IFO3445
Protocol: as §1

[2] = system: E. coli NIH JC-2 (IFO 12734); settings: Escherichia coli, IFO12734
Protocol: as §1

Compound	MIC [1] [µg/mL]	MIC (P. aeruginosa (IFO 3445)) [µg/mL]	MIC [2] [µg/mL]
CC(=N)N1CCN(c2c(F)c(N)c3c(=O)c(C(=O)O)cn(C4COC4)c3c2F)CC1 [Compound 109]	0.78 (≈ 1.85 µM)	3.13 (≈ 7.43 µM)	0.39 (≈ 0.925 µM)
O=C(O)c1cn(C2COC2)c2cc(N3CCNCC3)c(F)cc2c1=O [Compound 36]	3.13 (≈ 9.01 µM)	3.13 (≈ 9.01 µM)	0.39 (≈ 1.12 µM)
NCC1CN(c2c(F)cc3c(=O)c(C(=O)O)cn(C4COC4)c3c2F)CCO1 (stereo not drawn) [Compound 22]	0.78 (≈ 1.97 µM)	> 25	6.25 (≈ 15.8 µM)
CN[C@@H]1CN(c2c(F)c(N)c3c(=O)c(C(=O)O)cn(C4COC4)c3c2F)C[C@H]1C (relative stereo) [Compound 92]	0.39 (≈ 0.955 µM)	1.56 (≈ 3.82 µM)	0.1 (≈ 0.245 µM)
CNCC1CCN(c2c(F)cc3c(=O)c(C(=O)O)cn(C4COC4)c3c2F)C1 (stereo not drawn) [Compound 46]	0.1 (≈ 0.254 µM)	3.13 (≈ 7.96 µM)	0.78 (≈ 1.98 µM)
Nc1c(F)c(N2CCN(O)CC2)c(F)c2c1c(=O)c(C(=O)O)cn2C1COC1 [Compound 107]	3.13 (≈ 7.9 µM)	6.25 (≈ 15.8 µM)	0.78 (≈ 1.97 µM)
O=C(O)c1cn(C2COC2)c2nc(N3CCCC3)c(F)cc2c1=O [Compound 72]	0.2 (≈ 0.6 µM)	3.13 (≈ 9.39 µM)	0.39 (≈ 1.17 µM)
C[C@H]1CN(c2c(F)c(N)c3c(=O)c(C(=O)O)cn(C4COC4)c3c2F)C[C@H]1N (relative stereo) [Compound 103]	0.2 (≈ 0.507 µM)	0.39 (≈ 0.989 µM)	0.1 (≈ 0.254 µM)
Nc1c(F)c(N2CCOCC2)c(F)c2c1c(=O)c(C(=O)O)cn2C1COC1 [Compound 58]	0.39 (≈ 1.02 µM)	6.25 (≈ 16.4 µM)	0.78 (≈ 2.05 µM)
CNC1CCN(c2c(F)cc3c(=O)c(C(=O)O)cn(C4COC4)c3c2F)C1 (stereo not drawn) [Compound 44, 6,8-Difluoro-7-(3-methylaminopyrrolidin-1-yl)-1-(oxetan-3-yl)-1,4-dihydro-4-oxoquinoline-3-carboxylic acid]	1.56 (≈ 4.11 µM)	1.56 (≈ 4.11 µM)	0.39 (≈ 1.03 µM)
CN[C@@H]1CN(c2c(F)cc3c(=O)c(C(=O)O)cn(C4COC4)c3c2F)C[C@@H]1C (relative stereo) [Compound 93]	1.56 (≈ 3.97 µM)	3.13 (≈ 7.96 µM)	0.78 (≈ 1.98 µM)
Nc1c(F)c(N2CCCC2)c(F)c2c1c(=O)c(C(=O)O)cn2C1COC1 [Compound 27, 5-Amino-6,8-difluoro-1-(oxetan-3-yl)-7-(pyrrolidin-1-yl)-1,4-dihydro-4-oxoquinoline-3-carboxylic acid]	0.2 (≈ 0.547 µM)	3.13 (≈ 8.57 µM)	0.39 (≈ 1.07 µM)
COc1c(N2CCC(N(C)C)C2)c(F)cc2c(=O)c(C(=O)O)cn(C3COC3)c12 (stereo not drawn) [Compound 77]	1.56 (≈ 3.85 µM)	12.5 (≈ 30.8 µM)	1.56 (≈ 3.85 µM)
NC1CCN(c2cc3c(cc2F)c(=O)c(C(=O)O)cn3C2COC2)C1 (stereo not drawn) [Compound 37]	1.56 (≈ 4.49 µM)	1.56 (≈ 4.49 µM)	0.39 (≈ 1.12 µM)
CN(C)C1CCN(c2nc3c(cc2F)c(=O)c(C(=O)O)cn3C2COC2)C1 (stereo not drawn) [Compound 66]	3.13 (≈ 8.32 µM)	3.13 (≈ 8.32 µM)	0.39 (≈ 1.04 µM)
O=C(O)c1cn(C2COC2)c2c(F)c(N3CCNCC3)c(F)cc2c1=O [Compound 12]	1.56 (≈ 4.27 µM)	1.56 (≈ 4.27 µM)	0.2 (≈ 0.547 µM)
CO[C@@H]1CN(c2nc3c(cc2F)c(=O)c(C(=O)O)cn3C2COC2)C[C@H]1N (relative stereo) [Compound 88]	6.25 (≈ 16.5 µM)	3.13 (≈ 8.27 µM)	0.78 (≈ 2.06 µM)
CO[C@@H]1CN(c2c(F)c(N)c3c(=O)c(C(=O)O)cn(C4COC4)c3c2F)C[C@H]1N (relative stereo) [Compound 86]	1.56 (≈ 3.8 µM)	3.13 (≈ 7.63 µM)	0.39 (≈ 0.95 µM)
NCC1CCN(c2c(F)cc3c(=O)c(C(=O)O)cn(C4COC4)c3c2F)C1 (stereo not drawn) [Compound 20]	0.2 (≈ 0.527 µM)	3.13 (≈ 8.25 µM)	1.56 (≈ 4.11 µM)
NCC1CCN(c2cc3c(cc2F)c(=O)c(C(=O)O)cn3C2COC2)C1 (stereo not drawn) [Compound 38]	0.39 (≈ 1.08 µM)	12.5 (≈ 34.6 µM)	3.13 (≈ 8.66 µM)
O=C(O)c1cn(C2COC2)c2nc(N3CCSC3)c(F)cc2c1=O [Compound 73]	0.78 (≈ 2.22 µM)	6.25 (≈ 17.8 µM)	0.78 (≈ 2.22 µM)
CCNCC1CCN(c2c(F)cc3c(=O)c(C(=O)O)cn(C4COC4)c3c2F)C1 (stereo not drawn) [Compound 47]	0.2 (≈ 0.491 µM)	6.25 (≈ 15.3 µM)	0.78 (≈ 1.91 µM)
CC1CN(c2c(F)cc3c(=O)c(C(=O)O)cn(C4COC4)c3c2F)CCN1 (stereo not drawn) [Compound 13]	1.56 (≈ 4.11 µM)	1.56 (≈ 4.11 µM)	0.2 (≈ 0.527 µM)
O=C(O)c1cn(C2COC2)c2cc(N3CCC(O)C3)c(F)cc2c1=O (stereo not drawn) [Compound 42]	1.56 (≈ 4.48 µM)	3.13 (≈ 8.99 µM)	0.78 (≈ 2.24 µM)

The remaining compounds from weak to strong by MIC [1], led by results:

MIC [1] [µg/mL]	MIC (P. aeruginosa (IFO 3445)) [µg/mL]	MIC [2] [µg/mL]	Compound
3.13 (≈ 8.64 µM)	1.56 (≈ 4.31 µM)	0.39 (≈ 1.08 µM)	CN1CCN(c2nc3c(cc2F)c(=O)c(C(=O)O)cn3C2COC2)CC1 [Compound 61, 6-Fluoro-7-(4-methylpiperazin-1-yl)-1-(oxetan-3-yl)-1,4-dihydro-4-oxo-1,8-naphthylidine-3-carboxylic acid]
1.56 (≈ 3.97 µM)	3.13 (≈ 7.96 µM)	0.2 (≈ 0.508 µM)	CN(C)C1CCN(c2c(F)cc3c(=O)c(C(=O)O)cn(C4COC4)c3c2F)C1 (stereo not drawn) [Compound 19]
1.56 (≈ 4.27 µM)	1.56 (≈ 4.27 µM)	0.39 (≈ 1.07 µM)	NC1CCN(c2c(F)cc3c(=O)c(C(=O)O)cn(C4COC4)c3c2F)C1 (stereo not drawn) [Compound 18]
1.56 (≈ 4.44 µM)	3.13 (≈ 8.91 µM)	0.39 (≈ 1.11 µM)	NC1CN(c2c(F)cc3c(=O)c(C(=O)O)cn(C4COC4)c3c2F)C1 [Compound 48]
1.56 (≈ 3.83 µM)	6.25 (≈ 15.3 µM)	0.78 (≈ 1.91 µM)	N=CNC1CCN(c2c(F)c(N)c3c(=O)c(C(=O)O)cn(C4COC4)c3c2F)C1 (stereo not drawn) [Compound 110]
0.78 (≈ 1.96 µM)	6.25 (≈ 15.7 µM)	0.78 (≈ 1.96 µM)	Nc1c(F)c(N2CCSCC2)c(F)c2c1c(=O)c(C(=O)O)cn2C1COC1 [Compound 28]
0.78	1.56	0.39	C[C@@H]1CN(c2c(F)cc3c(=O)c(C(=O)O)cn(C4COC4)c3c2F)C[C@H]1N.O=C(O)C(F)(F)F (relative stereo) [Compound 97, 7-(Trans-3-amino-4-methylpyrrolidin-1-yl)-6,8-difluoro-1-(oxetan-3-yl)-1,4-dihydro-4-oxoquinoline-3-carboxylic acid trifluoroacetic acid salt]
0.78 (≈ 2.13 µM)	1.56 (≈ 4.26 µM)	0.39 (≈ 1.06 µM)	O=C(O)c1cn(C2COC2)c2c(F)c(N3CCC(O)C3)c(F)cc2c1=O (stereo not drawn) [Compound 16]
0.78 (≈ 2 µM)	6.25 (≈ 16 µM)	0.39 (≈ 1 µM)	CN(C)CC1CCN(c2cc3c(cc2F)c(=O)c(C(=O)O)cn3C2COC2)C1 (stereo not drawn) [Compound 40]
0.78	3.13	0.78	Cl.N=CN1CCN(c2c(F)c(N)c3c(=O)c(C(=O)O)cn(C4COC4)c3c2F)CC1 [Compound 108, 5-Amino-6,8-difluoro-7-(4-formimidoylpiperazin-1-yl)-1-(oxetan-3-yl)-1,4-dihydro-4-oxoquinoline-3-carboxylic acid hydrochloride]
0.39 (≈ 1.04 µM)	6.25 (≈ 16.6 µM)	1.56 (≈ 4.14 µM)	CNCC1CCN(c2nc3c(cc2F)c(=O)c(C(=O)O)cn3C2COC2)C1 (stereo not drawn) [Compound 70]
0.2 (≈ 0.571 µM)	1.56 (≈ 4.45 µM)	0.39 (≈ 1.11 µM)	O=C(O)c1cn(C2COC2)c2c(F)c(N3CCCC3)c(F)cc2c1=O [Compound 4, 6,8-Difluoro-1-(oxetan-3-yl)-7-(pyrrolidin-1-yl)-1,4-dihydro-4-oxoquinoline-3-carboxylic acid]
